Our source for the IC50 values is patent US12011444B2, “N-substituted indole derivatives as PGE2 receptor modulators” (Idorsia Pharmaceuticals Ltd, priority 2015, dated 2024).

The target of one assay is PTGER2 (EP2) (Homo sapiens (Human), UniProt P43116). The assay is described as follows: hEP2 b-arrestin assay (PathHunter HEK 293 PTGER2 b-arrestin cells). Type of assay: cell-based. In outline:
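HEK293 cells expressing ProLink-tagged EP2 and EA-fused β-arrestin 2 (enzyme fragment complementation) were seeded 24 h, pre-incubated with compound 15 min at 37 °C, then stimulated with 5 μM PGE2 (final) for 120 min.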

In a further assay the target is PTRGER4 (EP4) (Homo sapiens (Human), UniProt P35408). The assay is described as follows: hEP4 b-arrestin assay (PathHunter HEK 293 PTGER4 b-arrestin cells). The assay is classed as cell-based. A digest of the protocol: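 Stably transfected HEK293 cells carrying EP4–ProLink and β-arrestin 2–EA (β-gal fragment complementation), pre-incubated with compound 15 min at 37 °C, then stimulated with PGE2 (20 nM final) for 120 min at 37 °C. Chemiluminescence read after 1 h detection reagent at room temperature; activity per concentration expressed as percent of DMSO control.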

Setting [1] is: hEP2 b-arrestin assay (values without asterisk).
Setting [2] is: hEP4 b-arrestin assay (values without asterisk).
Setting [3] is: antagonistic activity on hEP2, mean where measured multiple times.
Setting [4] is: antagonistic activity on hEP4, mean where measured multiple times.

PTRGER4 (EP4), sequence (P35408 whole entry, looked up, the tested form may be a part): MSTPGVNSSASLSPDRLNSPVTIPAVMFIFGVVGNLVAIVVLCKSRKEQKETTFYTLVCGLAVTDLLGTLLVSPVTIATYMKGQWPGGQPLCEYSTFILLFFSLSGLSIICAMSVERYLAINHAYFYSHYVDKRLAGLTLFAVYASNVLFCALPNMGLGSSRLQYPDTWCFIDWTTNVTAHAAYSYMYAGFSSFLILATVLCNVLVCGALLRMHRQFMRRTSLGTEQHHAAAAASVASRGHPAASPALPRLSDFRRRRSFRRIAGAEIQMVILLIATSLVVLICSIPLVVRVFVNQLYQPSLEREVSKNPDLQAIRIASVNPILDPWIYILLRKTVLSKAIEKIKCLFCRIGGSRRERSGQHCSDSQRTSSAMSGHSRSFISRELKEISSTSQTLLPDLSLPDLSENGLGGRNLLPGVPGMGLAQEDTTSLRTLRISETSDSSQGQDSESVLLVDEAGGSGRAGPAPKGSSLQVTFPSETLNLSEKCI
PTGER2 (EP2), sequence (P43116 whole entry, the tested form may be a part): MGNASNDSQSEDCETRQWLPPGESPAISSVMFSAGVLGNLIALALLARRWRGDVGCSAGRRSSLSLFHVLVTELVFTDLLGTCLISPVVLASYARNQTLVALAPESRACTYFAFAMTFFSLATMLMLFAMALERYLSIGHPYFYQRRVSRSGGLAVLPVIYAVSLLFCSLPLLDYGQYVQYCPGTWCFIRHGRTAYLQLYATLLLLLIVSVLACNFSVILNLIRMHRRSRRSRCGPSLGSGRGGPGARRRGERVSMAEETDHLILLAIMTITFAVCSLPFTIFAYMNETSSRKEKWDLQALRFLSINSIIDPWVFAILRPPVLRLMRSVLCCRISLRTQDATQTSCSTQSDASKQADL

Broadly, the IC50 is the concentration needed to halve the response being measured. Low values mean inhibition by little substance, high ones a need for much substance. For `COc1ccc(F)c2c1cc(C#N)n2CCNc1cc(-c2ccc(C(=O)O)cc2)ncn1` [Example 974, 4-{6-[2-(2-Cyano-7-fluoro-4-methoxy-indol-1-yl)-ethylamino]-pyrimidin-4-yl}-benzoic acid], the results for the IC50 against PTGER2 (EP2) (setting [1]) and at PTRGER4 (EP4) (setting [2]) were 36 nM and 84 nM, respectively.

`CCOc1cc(-c2cc(NCCn3c(C#N)cc4c(C)cc(F)cc43)ncn2)sc1C(=O)O` [compound 249]: the half-maximal inhibitory concentration (IC50) at PTGER2 (EP2) (setting [3]) turned out to be 3 nM; at PTRGER4 (EP4) (setting [4]) it was 9 nM.

For the molecule `COc1ccc(F)c2c1cc(C)n2CCNc1cc(-c2ccc(CO)c(F)c2)ncn1` [compound 28, (2-Fluoro-4-{6-[2-(7-fluoro-4-methoxy-2-methyl-indol-1-yl)-ethylamino]-pyrimidin-4-yl}-phenyl)-methanol], the IC50 came out at 17 nM on PTGER2 (EP2) (setting [3]) and 249 nM at PTRGER4 (EP4) (setting [4]).

As for `Cc1nc(-c2ccc(-c3cc(NCCn4c(C)cc5c(C)ccc(F)c54)ncn3)cc2)cs1` [compound 195], the values for the IC50 against PTGER2 (EP2) (setting [3]) and at PTRGER4 (EP4) (setting [4]) were 260 nM and 534 nM, respectively.

Regarding `COc1ccc(F)c2c1cc(C#N)n2CCNc1cc(-c2ccc(-c3cc(O)no3)cc2)ncn1` [Example 852, 7-Fluoro-1-(2-{6-[4-(3-hydroxy-isoxazol-5-yl)-phenyl]-pyrimidin-4-ylamino}-ethyl)-4-methoxy-1H-indole-2-carbonitrile], the figures for the IC50 against PTGER2 (EP2) (setting [1]) and against PTRGER4 (EP4) (setting [2]) were 12 nM and 22 nM, respectively.

For `COc1ccc(F)c2c1cc(C)n2CCNc1cc(-c2cc(C)c(C(=O)O)c(Cl)c2)ncn1` [compound 156], the values for the IC50 against PTGER2 (EP2) (setting [3]) and at PTRGER4 (EP4) (setting [4]) were 78 nM and 93 nM, respectively.

In the case of `COc1ccc(F)c2c1cc(C#N)n2CCNc1cc(-c2ccc3c(=O)[nH][nH]c(=O)c3c2)ncn1` [Example 1064, 1-{2-[6-(1,4-Dioxo-1,2,3,4-tetrahydro-phthalazin-6-yl)-pyrimidin-4-ylamino]-ethyl}-7-fluoro-4-methoxy-1H-indole-2-carbonitrile], the IC50 on PTGER2 (EP2) (setting [1]) came to 25 nM; on PTRGER4 (EP4) (setting [2]), 151 nM.

On to `CCCc1cc(-c2cc(NCCn3c(C)cc4cc(F)cc(F)c43)ncn2)ccc1C(=O)O` [compound 145, 4-{6-[2-(5,7-Difluoro-2-methyl-indol-1-yl)-ethylamino]-pyrimidin-4-yl}-2-propyl-benzoic acid], for which the IC50 at PTGER2 (EP2) (setting [3]) was determined as 8 nM; against PTRGER4 (EP4) (setting [4]), 302 nM.

Take `COc1cc(C(=O)O)cc(-c2cc(NCCn3c(C#N)cc4c(OC)ccc(F)c43)ncn2)c1` [Example 1005, 3-{6-[2-(2-Cyano-7-fluoro-4-methoxy-indol-1-yl)-ethylamino]-pyrimidin-4-yl}-5-methoxy-benzoic acid]: the IC50 against PTGER2 (EP2) (setting [1]) was determined as 18 nM; against PTRGER4 (EP4) (setting [2]), 55 nM.

Regarding `CCOc1cc(-c2cc(NCCn3c(C)cc4c(Cl)c(F)cc(Cl)c43)ncn2)sc1C(=O)O` [Example 883, 5-{6-[2-(4,7-Dichloro-5-fluoro-2-methyl-indol-1-yl)-ethylamino]-pyrimidin-4-yl}-3-ethoxy-thiophene-2-carboxylic acid], the results for the IC50 against PTGER2 (EP2) (setting [1]) and on PTRGER4 (EP4) (setting [2]) were 7 nM and 63 nM, respectively.

For the molecule `CCOc1cc(-c2cc(NCCn3c(C)cc4c(OC)ccc(F)c43)ncn2)sc1C(C)O` (stereo not shown) [Example 1053, 1-(3-Ethoxy-5-{6-[2-(7-fluoro-4-methoxy-2-methyl-indol-1-yl)-ethylamino]-pyrimidin-4-yl}-thiophen-2-yl)-ethanol], the IC50 against PTGER2 (EP2) (setting [1]) stood at 10 nM; against PTRGER4 (EP4) (setting [2]), 100 nM.

Turning to `CCOc1cc(-c2cc(NCCn3c(C)cc4c(OC)ccc(F)c43)ncn2)ccc1-c1ncco1` [Example 842, [6-(3-Ethoxy-4-oxazol-2-yl-phenyl)-pyrimidin-4-yl]-[2-(7-fluoro-4-methoxy-2-methyl-indol-1-yl)-ethyl]-amine], the results for the IC50 against PTGER2 (EP2) (setting [1]) and against PTRGER4 (EP4) (setting [2]) were 13 nM and 94 nM, respectively.

For the molecule `Cc1ccc(F)c2c1cc(C)n2CCNc1cc(-c2ccc(C(N)=O)cc2)ncn1` [compound 25, 4-{6-[2-(7-Fluoro-2,4-dimethyl-indol-1-yl)-ethylamino]-pyrimidin-4-yl}-benzamide], the IC50 against PTGER2 (EP2) (setting [3]) came to 27 nM; against PTRGER4 (EP4) (setting [4]) it was 616 nM.

`CCOc1cc(-c2cc(NCCn3c(C#N)cc4cccc(F)c43)ncn2)sc1C(=O)O` [Example 892, 5-{6-[2-(2-Cyano-7-fluoro-indol-1-yl)-ethylamino]-pyrimidin-4-yl}-3-ethoxy-thiophene-2-carboxylic acid]: the IC50 at PTGER2 (EP2) (setting [1]) was found to be 1 nM; at PTRGER4 (EP4) (setting [2]) it was 24 nM.

As for `COc1cc(F)cc2c1cc(C)n2CCNc1cc(-c2cc(F)c(C(=O)O)s2)ncn1` [compound 113], the IC50 against PTGER2 (EP2) (setting [3]) amounted to 8 nM; against PTRGER4 (EP4) (setting [4]), 57 nM.

As to `CCOc1cc(-c2cc(NCCn3c(C)cc4c(C)cc(F)cc43)ncn2)ccc1C(=O)O` [compound 282], the IC50 against PTGER2 (EP2) (setting [3]) stood at 11 nM; at PTRGER4 (EP4) (setting [4]), 294 nM.

As to `COc1ccc(F)c2c1cc(C)n2CCNc1cc(-c2cc(Cl)c(C(=O)O)s2)ncn1` [compound 114], the values for the IC50 against PTGER2 (EP2) (setting [3]) and against PTRGER4 (EP4) (setting [4]) were 4 nM and 27 nM, respectively.

With `Cc1cc(F)cc2c1cc(C)n2CCNc1cc(-c2ccc(C(=O)O)c(C3CC3)c2)ncn1` [compound 354], the figures for the half-inhibitory concentration (IC50) on PTGER2 (EP2) (setting [3]) and at PTRGER4 (EP4) (setting [4]) were 32 nM and 772 nM, respectively.

As to `Cc1cc(F)cc2c1cc(C)n2CCNc1cc(-c2cc(C(F)(F)F)c(C(=O)O)s2)ncn1` [compound 269], the IC50 against PTGER2 (EP2) (setting [3]) was found to be 61 nM; against PTRGER4 (EP4) (setting [4]) it was 117 nM.

Consider `COc1cccc2c1cc(C)n2CCNc1cc(-c2cc(C)c(C(=O)O)c(Cl)c2)ncn1` [compound 131, 2-Chloro-4-{6-[2-(4-methoxy-2-methyl-indol-1-yl)-ethylamino]-pyrimidin-4-yl}-6-methyl-benzoic acid], for which the IC50 at PTGER2 (EP2) (setting [3]) was 23 nM; at PTRGER4 (EP4) (setting [4]), 402 nM.

As to `COc1ccc(F)c2c1cc(C)n2CCNc1cc(-c2ccc(-c3c[nH]cn3)cc2)ncn1` [compound 191, [2-(7-Fluoro-4-methoxy-2-methyl-indol-1-yl)-ethyl]-{6-[4-(1H-imidazol-4-yl)-phenyl]-pyrimidin-4-yl}-amine], the half-inhibitory concentration (IC50) against PTGER2 (EP2) (setting [3]) turned out to be 13 nM; on PTRGER4 (EP4) (setting [4]), 38 nM.

As for `CCc1cc(-c2cc(NCCn3c(C)cc4c(CC)cccc43)ncn2)ccc1C(=O)O` [compound 118, 2-Ethyl-4-{6-[2-(4-ethyl-2-methyl-indol-1-yl)-ethylamino]-pyrimidin-4-yl}-benzoic acid], the IC50 came to 612 nM at PTGER2 (EP2) (setting [3]) and 933 nM at PTRGER4 (EP4) (setting [4]).

Turning to `CCOc1cc(-c2cc(NCCn3c(C#N)cc4c(OC)ccc(F)c43)ncn2)ccc1NCC(=O)O` [Example 861, (4-{6-[2-(2-Cyano-7-fluoro-4-methoxy-indol-1-yl)-ethylamino]-pyrimidin-4-yl}-2-ethoxy-phenylamino)-acetic acid], the IC50 at PTGER2 (EP2) (setting [1]) worked out at 5 nM; against PTRGER4 (EP4) (setting [2]), 2 nM.

Consider `COc1ccc(F)c2c1cc(C#N)n2CCNc1cc(-c2cccc3[nH]ccc23)ncn1` [Example 969, 7-Fluoro-1-{2-[6-(1H-indol-4-yl)-pyrimidin-4-ylamino]-ethyl)-4-methoxy-1H-indole-2-carbonitrile], for which the IC50 is 56 nM on PTGER2 (EP2) (setting [1]) and 25 nM at PTRGER4 (EP4) (setting [2]).

Regarding `COc1ccc(F)c2c1cc(C#N)n2CCNc1cc(-c2ccc(O)c(C(F)(F)F)c2)ncn1` [Example 1001, 7-Fluoro-1-{2-[6-(4-hydroxy-3-trifluoromethyl-phenyl)-pyrimidin-4-ylamino]-ethyl}-4-methoxy-1H-indole-2-carbonitrile], the IC50 against PTGER2 (EP2) (setting [1]) is 6 nM; on PTRGER4 (EP4) (setting [2]) it was 7 nM.

As to `Cc1ccc(F)c2c1cc(C)n2CCNc1cc(-c2cc(Cl)c(C(=O)O)c(Cl)c2)ncn1` [compound 222], the results for the IC50 on PTGER2 (EP2) (setting [3]) and at PTRGER4 (EP4) (setting [4]) were 42 nM and 232 nM, respectively.
